pIC50: −log10 of the molar value.
molecular target: Caspase-8 (Homo sapiens) (UniProt Q14790); assay: Inhibitory activity against Caspase-8; settings: not given
Sequence (Q14790 217-374 limits assumed): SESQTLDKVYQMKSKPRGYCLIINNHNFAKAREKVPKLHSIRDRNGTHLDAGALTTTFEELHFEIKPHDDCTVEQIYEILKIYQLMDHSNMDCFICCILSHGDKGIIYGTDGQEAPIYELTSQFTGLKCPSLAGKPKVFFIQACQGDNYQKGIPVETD
Sequence (Q14790 385-479 limits assumed): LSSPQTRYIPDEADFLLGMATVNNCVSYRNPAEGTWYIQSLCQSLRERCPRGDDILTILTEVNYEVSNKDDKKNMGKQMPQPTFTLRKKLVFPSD

Compound | k3/Ki [M⁻¹ s⁻¹]
C[C@H](NC(=O)C(=O)Nc1cc(C(C)(C)C)ccc1C(C)(C)C)C(=O)N[C@@H](CC(=O)O)C(=O)COC(=O)c1c(Cl)cccc1Cl | 68
C[C@H](NC(=O)C(=O)Nc1ccccc1Cl)C(=O)N[C@@H](CC(=O)O)C(=O)COc1c(F)c(F)cc(F)c1F | 228000
C[C@H](NC(=O)C(=O)Nc1cc(C(C)(C)C)ccc1C(C)(C)C)C(=O)N[C@@H](CC(=O)O)C(=O)COP(=O)(c1ccccc1)c1ccccc1 | 970000

Other lines, results leading:

k3/Ki [M⁻¹ s⁻¹] | Compound
4300 | C[C@H](NC(=O)C(=O)Nc1ccccc1C(C)(C)C)C(=O)N[C@@H](CC(=O)O)C(=O)COC(=O)c1c(Cl)cccc1Cl
98000 | O=C(O)CC(NC(=O)[C@@H]1Cc2cccc3c2N1C(=O)[C@@H](NC(=O)OCc1ccccc1)CC3)C(=O)CF (some centres undefined)
617000 | C[C@H](NC(=O)C(=O)Nc1ccccc1Cc1ccccc1)C(=O)N[C@@H](CC(=O)O)C(=O)COc1c(F)c(F)cc(F)c1F

tested on: Mus musculus; assay: Effective dose required for pancaspase inhibition in a-Fas liver upon i.p. administration; range = 0.02-0.16; settings: ip

Compound | ED50 [mg/kg]
C[C@H](NC(=O)C(=O)Nc1ccccc1Cl)C(=O)N[C@@H](CC(=O)O)C(=O)COc1c(F)c(F)cc(F)c1F | 0.05

tested on: Mus musculus; assay: Effective dose required for pancaspase inhibition in a-Fas liver upon i.p. administration; settings: ip

Compound | ED50 [mg/kg]
C[C@H](NC(=O)C(=O)Nc1ccccc1C(C)(C)C)C(=O)N[C@@H](CC(=O)O)C(=O)COC(=O)c1c(Cl)cccc1Cl | 45.8
C[C@H](NC(=O)C(=O)Nc1cc(C(C)(C)C)ccc1C(C)(C)C)C(=O)N[C@@H](CC(=O)O)C(=O)COP(=O)(c1ccccc1)c1ccccc1 | 0.5

molecular target: T1, Caspase-1 (Mus musculus) (UniProt P29452); assay: Inhibitory activity against murine Caspase-1; settings: not given
T1 sequence (whole entry): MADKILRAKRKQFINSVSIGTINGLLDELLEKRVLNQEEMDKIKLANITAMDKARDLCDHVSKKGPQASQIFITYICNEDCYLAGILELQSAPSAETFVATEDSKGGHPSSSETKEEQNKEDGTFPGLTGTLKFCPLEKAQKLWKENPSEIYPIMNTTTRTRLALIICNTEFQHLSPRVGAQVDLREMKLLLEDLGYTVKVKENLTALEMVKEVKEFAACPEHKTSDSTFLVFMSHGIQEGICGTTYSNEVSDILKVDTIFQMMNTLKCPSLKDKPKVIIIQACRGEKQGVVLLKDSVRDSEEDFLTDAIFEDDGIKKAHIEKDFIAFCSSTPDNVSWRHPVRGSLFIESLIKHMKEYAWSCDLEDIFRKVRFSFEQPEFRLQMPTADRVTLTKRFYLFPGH

Compound | k3/Ki [M⁻¹ s⁻¹]
C[C@H](NC(=O)C(=O)Nc1cc(C(C)(C)C)ccc1C(C)(C)C)C(=O)N[C@@H](CC(=O)O)C(=O)COC(=O)c1c(Cl)cccc1Cl | 4.02e+06
C[C@H](NC(=O)C(=O)Nc1ccccc1Cl)C(=O)N[C@@H](CC(=O)O)C(=O)COc1c(F)c(F)cc(F)c1F | 1.34e+07
C[C@H](NC(=O)C(=O)Nc1cc(C(C)(C)C)ccc1C(C)(C)C)C(=O)N[C@@H](CC(=O)O)C(=O)COP(=O)(c1ccccc1)c1ccccc1 | 2.71e+06

Other lines, results leading:

k3/Ki [M⁻¹ s⁻¹] | Compound
8.33e+06 | C[C@H](NC(=O)C(=O)Nc1ccccc1C(C)(C)C)C(=O)N[C@@H](CC(=O)O)C(=O)COC(=O)c1c(Cl)cccc1Cl
1.2e+07 | O=C(O)CC(NC(=O)[C@@H]1Cc2cccc3c2N1C(=O)[C@@H](NC(=O)OCc1ccccc1)CC3)C(=O)CF (some centres undefined)
1.97e+06 | C[C@H](NC(=O)C(=O)Nc1ccccc1Cc1ccccc1)C(=O)N[C@@H](CC(=O)O)C(=O)COc1c(F)c(F)cc(F)c1F

tested on: THP-1; assay: Inhibitory concentration against THP-1 cells; type: functional, cell-based; settings: Homo sapiens

Compound | pIC50
C[C@H](NC(=O)C(=O)Nc1cc(C(C)(C)C)ccc1C(C)(C)C)C(=O)N[C@@H](CC(=O)O)C(=O)COC(=O)c1c(Cl)cccc1Cl | 5.50
C[C@H](NC(=O)C(=O)Nc1ccccc1Cl)C(=O)N[C@@H](CC(=O)O)C(=O)COc1c(F)c(F)cc(F)c1F | 6.27
C[C@H](NC(=O)C(=O)Nc1cc(C(C)(C)C)ccc1C(C)(C)C)C(=O)N[C@@H](CC(=O)O)C(=O)COP(=O)(c1ccccc1)c1ccccc1 | 5.23

Further lines, results first:

pIC50 | Compound
4.93 | C[C@H](NC(=O)C(=O)Nc1ccccc1C(C)(C)C)C(=O)N[C@@H](CC(=O)O)C(=O)COC(=O)c1c(Cl)cccc1Cl
6.52 | O=C(O)CC(NC(=O)[C@@H]1Cc2cccc3c2N1C(=O)[C@@H](NC(=O)OCc1ccccc1)CC3)C(=O)CF (some centres undefined)
6.27 | C[C@H](NC(=O)C(=O)Nc1ccccc1Cc1ccccc1)C(=O)N[C@@H](CC(=O)O)C(=O)COc1c(F)c(F)cc(F)c1F

molecular target: T2, Caspase-3 (Homo sapiens) (UniProt P42574); assay: Inhibitory activity against Caspase-3; settings: not given
T2 sequence (whole entry): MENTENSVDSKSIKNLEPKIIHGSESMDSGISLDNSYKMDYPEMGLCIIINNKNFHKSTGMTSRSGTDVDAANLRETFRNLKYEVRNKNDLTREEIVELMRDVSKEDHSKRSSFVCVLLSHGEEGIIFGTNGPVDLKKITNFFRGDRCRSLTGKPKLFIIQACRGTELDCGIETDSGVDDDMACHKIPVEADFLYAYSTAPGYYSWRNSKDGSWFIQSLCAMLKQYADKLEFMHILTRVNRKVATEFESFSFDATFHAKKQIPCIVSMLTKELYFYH

Compound | k3/Ki [M⁻¹ s⁻¹]
C[C@H](NC(=O)C(=O)Nc1cc(C(C)(C)C)ccc1C(C)(C)C)C(=O)N[C@@H](CC(=O)O)C(=O)COC(=O)c1c(Cl)cccc1Cl | 30000
C[C@H](NC(=O)C(=O)Nc1ccccc1Cl)C(=O)N[C@@H](CC(=O)O)C(=O)COc1c(F)c(F)cc(F)c1F | 219000
C[C@H](NC(=O)C(=O)Nc1cc(C(C)(C)C)ccc1C(C)(C)C)C(=O)N[C@@H](CC(=O)O)C(=O)COP(=O)(c1ccccc1)c1ccccc1 | 18300

The next lines start with the values.

k3/Ki [M⁻¹ s⁻¹] | Compound
236000 | C[C@H](NC(=O)C(=O)Nc1ccccc1C(C)(C)C)C(=O)N[C@@H](CC(=O)O)C(=O)COC(=O)c1c(Cl)cccc1Cl
960000 | O=C(O)CC(NC(=O)[C@@H]1Cc2cccc3c2N1C(=O)[C@@H](NC(=O)OCc1ccccc1)CC3)C(=O)CF (some centres undefined)
44400 | C[C@H](NC(=O)C(=O)Nc1ccccc1Cc1ccccc1)C(=O)N[C@@H](CC(=O)O)C(=O)COc1c(F)c(F)cc(F)c1F

molecular target: T3, Caspase-6 (Homo sapiens) (UniProt P55212); assay: Inhibitory activity against Caspase-6; settings: not given
T3 sequence (whole entry): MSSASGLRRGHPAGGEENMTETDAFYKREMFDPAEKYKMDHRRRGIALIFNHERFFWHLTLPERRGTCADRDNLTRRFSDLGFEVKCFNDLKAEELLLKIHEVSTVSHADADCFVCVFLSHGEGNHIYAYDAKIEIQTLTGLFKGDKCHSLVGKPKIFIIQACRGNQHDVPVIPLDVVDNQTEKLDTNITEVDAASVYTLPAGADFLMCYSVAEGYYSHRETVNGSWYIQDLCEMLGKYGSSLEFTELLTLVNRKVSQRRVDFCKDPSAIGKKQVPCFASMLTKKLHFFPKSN

Compound | k3/Ki [M⁻¹ s⁻¹]
C[C@H](NC(=O)C(=O)Nc1cc(C(C)(C)C)ccc1C(C)(C)C)C(=O)N[C@@H](CC(=O)O)C(=O)COC(=O)c1c(Cl)cccc1Cl | 6400
C[C@H](NC(=O)C(=O)Nc1ccccc1Cl)C(=O)N[C@@H](CC(=O)O)C(=O)COc1c(F)c(F)cc(F)c1F | 26000
C[C@H](NC(=O)C(=O)Nc1cc(C(C)(C)C)ccc1C(C)(C)C)C(=O)N[C@@H](CC(=O)O)C(=O)COP(=O)(c1ccccc1)c1ccccc1 | 7640

Second part, the compound after the results:

k3/Ki [M⁻¹ s⁻¹] | Compound
105000 | C[C@H](NC(=O)C(=O)Nc1ccccc1C(C)(C)C)C(=O)N[C@@H](CC(=O)O)C(=O)COC(=O)c1c(Cl)cccc1Cl
25000 | O=C(O)CC(NC(=O)[C@@H]1Cc2cccc3c2N1C(=O)[C@@H](NC(=O)OCc1ccccc1)CC3)C(=O)CF (some centres undefined)
33600 | C[C@H](NC(=O)C(=O)Nc1ccccc1Cc1ccccc1)C(=O)N[C@@H](CC(=O)O)C(=O)COc1c(F)c(F)cc(F)c1F

tested on: Jurkat; assay: Inhibitory concentration against JFas cells; type: functional, cell-based; settings: Homo sapiens

Compound | pIC50
C[C@H](NC(=O)C(=O)Nc1cc(C(C)(C)C)ccc1C(C)(C)C)C(=O)N[C@@H](CC(=O)O)C(=O)COC(=O)c1c(Cl)cccc1Cl | 5.86
C[C@H](NC(=O)C(=O)Nc1ccccc1Cl)C(=O)N[C@@H](CC(=O)O)C(=O)COc1c(F)c(F)cc(F)c1F | 7.19
C[C@H](NC(=O)C(=O)Nc1cc(C(C)(C)C)ccc1C(C)(C)C)C(=O)N[C@@H](CC(=O)O)C(=O)COP(=O)(c1ccccc1)c1ccccc1 | 6.96

Further lines, results first:

pIC50 | Compound
6.84 | C[C@H](NC(=O)C(=O)Nc1ccccc1C(C)(C)C)C(=O)N[C@@H](CC(=O)O)C(=O)COC(=O)c1c(Cl)cccc1Cl
6.29 | O=C(O)CC(NC(=O)[C@@H]1Cc2cccc3c2N1C(=O)[C@@H](NC(=O)OCc1ccccc1)CC3)C(=O)CF (some centres undefined)
8.00 | C[C@H](NC(=O)C(=O)Nc1ccccc1Cc1ccccc1)C(=O)N[C@@H](CC(=O)O)C(=O)COc1c(F)c(F)cc(F)c1F
